Measured values: patent US10640527B2, “Mesitylene-cored amphiphiles and uses thereof” (Industry-University Cooperation Foundation Hanyang …, priority 2016, dated 2020)
Where “and” joins values, the source holds several entries; their conditions need not be identical. Equal values may be shown once.

Assays:
[1] = biological target: T1, human β2-adrenergic receptor (β2AR) (Homo sapiens, UniProt P07550); experiment: Size exclusion chromatography (SEC) of β2AR solubilized in amphiphile; conditions: for SEC profile of solubilized β2AR: amphiphile-free running buffer
T1 sequence (P07550 whole entry): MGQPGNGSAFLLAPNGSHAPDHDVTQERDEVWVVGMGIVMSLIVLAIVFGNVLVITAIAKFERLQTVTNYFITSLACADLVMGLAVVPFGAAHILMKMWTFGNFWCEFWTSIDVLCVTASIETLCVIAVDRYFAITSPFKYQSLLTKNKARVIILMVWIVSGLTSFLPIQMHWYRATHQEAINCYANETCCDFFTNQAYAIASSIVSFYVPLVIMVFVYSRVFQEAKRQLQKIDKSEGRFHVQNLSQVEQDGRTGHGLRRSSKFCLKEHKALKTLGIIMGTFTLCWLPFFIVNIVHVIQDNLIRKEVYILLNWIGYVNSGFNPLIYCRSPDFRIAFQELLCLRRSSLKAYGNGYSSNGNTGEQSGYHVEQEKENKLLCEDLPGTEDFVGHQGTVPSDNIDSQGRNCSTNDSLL
Method: A size exclusion chromatography (SEC) experiment was conducted to determine the β2AR crystallization effect and β2AR stability preservation effect by MGA-C13 or DDM.
Specifically, β2AR purified by 0.1% DDM was mixed with a DDM or MGA-C13 buffer (20 mM HEPES pH 7.5, 100 mM NaCl, 0.2% of each amphiphile) and incubated for 30 minutes. The sample was applied to a Superdex-200 10/300 GL column (GE Healthcare Life Sciences) at a rate of 0.5 ml/min, fluorescence was recorded at 345 nm, and an […] wavelength was 295 nm. A running buffer contained 20 mM HEPES (pH 7.5) and 100 mM NaCl, and contained each amphiphile (DDM or MGA-C13) or not.

[2] = biological target: T1, human β2-adrenergic receptor (β2AR); experiment: β2AR stability, [3H]-dihydroalprenolol radioligand binding; type: biochemical; conditions: after three days of incubation at room temperature, CMC+0.2 wt %
Method: The activity of a receptor (β2AR) purified by DDM or MGAs (MGA-C12, MGA-C13 and MGA-C14) was measured by binding of [^3H]-dihydroalprenolol ([^3H]-DHA).
Specifically, the following method was used in a radioligand binding experiment. β2AR was purified by 0.1% DDM. The DDM-purified β2AR was diluted with a buffer solution containing each amphiphile (DDM or an MGA) such that the final concentration of the amphiphile was CMC+0.2 wt %. β2AR dissolved in each amphiphile was stored at room temperature for three days, and incubated at room temperature for 30 minutes using 10 nM-radioactive [^3H]-dihydroalprenolol (DHA) to measure ligand binding thereof at regular intervals. The mixture was loaded into a G-50 column, and passing liquid was collected using a binding buffer (20 mM HEPES pH 7.5, 100 mM NaCl supplemented with 0.5 mg/ml BSA) and 15 ml of a scintillation fluid was added thereto. Receptor-coupled [^3H]-DHA was measured by a scintillation counter (Beckman). Non-specific binding of [^3H]-DHA was measured by adding 1 μM of alprenolol (Sigma) in the same reaction. Binding of [^3H]-DHA was measured by column graphs.

[3] = Hydrodynamic radius / size distribution of micelles by dynamic light scattering (DLS); type: physicochemical; conditions: 1.0 wt % amphiphile
Method: A method of measuring a radius of the micelle is not particularly limited, and those methods widely known in the related field may be used, for example, a dynamic light scattering (DLS) experiment may be used for measurement.
(§1) Specifically, a CMC was measured by a fluorophorescent encapsulation method using diphenylhexatriene (DPH) and an Rh of a micelle formed by each formulation (1.0 wt %) was measured using a dynamic light scattering (DLS) experiment.

[4] = Critical micelle concentration by fluorophore encapsulation using diphenylhexatriene (DPH); type: physicochemical; conditions: aqueous solution
Method: A method of measuring a CMC is not particularly limited, and those methods widely known in the related field may be used. For example, a CMC may be measured by a fluorophore encapsulation method using diphenylhexatriene (DPH).
as §1

[5] = system: leucine transporter (LeuT); experiment: LeuT long-term stability, [3H]-Leu binding by scintillation proximity assay (SPA); type: biochemical, Aquifex aeolicus; conditions: after 12 days of incubation at room temperature
Method: An experiment for measuring the structural stability of LeuT proteins according to MGAs (MGA-C11, MGA-C12, MGA-C13, MGA-C14 and MGA-C15) was performed. Each amphiphile was used at a concentration of (a) CMC+0.04 wt % or (b) CMC+0.2 wt %, a ligand-binding activity of LeuT was measured by scintillation proximity assay (SPA) using [^3H]-Leucine. The measurement was performed at regular intervals at room temperature during 12 days of incubation.
Specifically, a thermophilic bacteria Aquifex aeolicus-derived wild type LeuT was purified using a previously described method (Nature, G. Deckert et al., 1998, 392, 353-358). To sum up, the LeuT was expressed in E. coli C41 (DE3) cultured in a lysogeny broth medium supplemented with 0.1 mg/ml ampicillin. Expression of proteins was induced by adding isopropyl β-D-thiogalactopyranoside to a final concentration of 0.1 mM.
A cell membrane was separated from a crushed cell (Constant Systems Homogenizers, Kennesaw, Ga.), and solubilized in 1% (w/v) n-dodecyl-β-D-maltopyranoside (DDM; Affymetrix, Santa Clara, Calif.). After solubilization, LeuT was fixed in a Ni^2+-NTA resin (Life Technologies, Denmark), and eluted in 20 mM Tris-HCl (pH 7.5), 199 mM KCl, 1 mM NaCl, 0.05% (w/v) DDM and 300 mM imidazole. Thereafter, purified LeuT (about 1.5 mg/ml) was diluted tenfold with a buffer supplemented with MGA (MGA-C11, MGA-C12, MGA-C13, MGA-C14 or MGA-C15) or DDM to the final concentration of CMC+0.04% (w/v) or CMC+0.2% (w/v) while excluding DDM and imidazole from the above-described buffers. Protein samples were stored at room temperature for 12 days, and protein activity was determined by measuring [^3H]-Leu binding by SPA at a specified time. SPA was carried out using 450 mM NaCl and buffers containing each MGA, and a SPA reaction was performed in the presence of 20 nM [^3H]-Leu and 1.25 mg/ml copper chelate (His-Tag) YSi beads (Perkin Elmer, Denmark). [^3H]-Leu binding was measured using a MicroBeta liquid scintillation counter (Perkin Elmer).

[6] = biological target: T2, melibiose permease (MelBSt) (Salmonella typhimurium, UniProt P30878); experiment: MelBSt extraction from membranes and thermal stability, SDS-PAGE and Western blotting; type: biochemical; conditions: 1.5 wt %, 90 minutes; for MelBSt protein extraction efficiency compared with DDM: 45° C.; for MelBSt extraction ability compared with DDM: 55° C.
T2 construct: made in house; host or cells: DW2 cells (ΔmelB and ΔlacZY), Salmonella typhimurium DW2
T2 sequence (P30878 whole entry): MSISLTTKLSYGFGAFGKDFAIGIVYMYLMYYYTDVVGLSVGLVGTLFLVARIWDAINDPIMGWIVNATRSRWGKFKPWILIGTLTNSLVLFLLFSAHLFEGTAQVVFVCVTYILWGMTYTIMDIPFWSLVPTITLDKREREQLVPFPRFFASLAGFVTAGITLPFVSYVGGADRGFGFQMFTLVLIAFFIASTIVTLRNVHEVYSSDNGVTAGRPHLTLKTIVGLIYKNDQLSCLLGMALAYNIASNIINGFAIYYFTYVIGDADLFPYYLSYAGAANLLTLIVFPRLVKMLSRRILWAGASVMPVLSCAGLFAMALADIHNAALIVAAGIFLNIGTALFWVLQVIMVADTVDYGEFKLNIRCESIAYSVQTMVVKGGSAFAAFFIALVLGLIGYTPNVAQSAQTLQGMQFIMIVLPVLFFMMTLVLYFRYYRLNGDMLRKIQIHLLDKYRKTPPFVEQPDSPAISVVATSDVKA
Method: An experiment for measuring the structural stability of Salmonella typhimurium melibiose permease (MelBSt) according to MGAs in an aqueous solution was performed. After MelBSt proteins were extracted from a membrane using MGAs or DDM, the amount and structure of extracted proteins were analyzed by SDS-PAGE and western blotting. The concentration of used amphiphiles was 1.5 wt %, and proteins were extracted at four different temperatures of 0, 45, 55 and 65° C. to evaluate both the protein extraction efficiency and stabilizing ability of a compound. A membrane sample which had not been treated with MGAs or DDM was used as a control group.
Specifically, MelBSt stability solubilized in DDM or MGAs was evaluated according to a method described in 2010 in a research article (P. S. Chae et al., Nat. Methods 2010, 7, 1003-1008.) by the inventors of the present invention. Proteins (MelBSt) were produced using plasmid pK95ΔAHB/WT MelBSt/CH10 encoding the wild-type MelB with a 6-His tag at the C-terminus and Salmonella typhimurium DW2 cells (ΔmelB and ΔlacZY). Cell growth and membrane preparation was performed according to a method described in a research article (Nat. Commun. 2014, 5, 3009) by A. S. Ethayathulla, et al. A protein assay was carried out using a Micro BCA kit (Thermo Scientific, Rockford, Ill.). In order to measure protein solubilization, a membrane sample (final protein concentration was 10 mg/mL) containing MelBSt was incubated with a solubilization buffer (20 mM sodium phosphate, pH 7.5, 200 mM NaCl, 10% glycerol and 20 mM melibiose) and 1.5% (w/v) DDM or MGA (MGA-C10, MGA-C11, MGA-C12, MGA-C13, MGA-C14 or MGA-C15) at four different temperatures of 0, 45, 55 and 65° C. for 90 minutes. After ultracentrifugation at 355,590 g in a Beckman Optima™ MAX Ultracentrifuge using a TLA-100 rotor for 45 min at 4° C., 20 μg of a protein was separated by SDS-16% PAGE and immunoblotted with a Penta-His-HRP antibody (Qiagen, Germantown, Md.). MelBSt was measured by an ImageQuant LAS 4000 Biomolecular Imager (GE Healthcare Life Sciences) using a SuperSignal West Pico chemiluminescent substrate.

[7] = biological target: T3, uric acid-xanthine/H+ symporter (UapA) (Emericella nidulans, UniProt Q07307, G411V); experiment: UapA structural (thermal) stability, CPM assay; type: biochemical, Aspergillus nidulans
T3 construct: GFP; made in house; host or cells: Saccharomyces cerevisiae FGY217
T3 sequence (Q07307 12-574 G411V): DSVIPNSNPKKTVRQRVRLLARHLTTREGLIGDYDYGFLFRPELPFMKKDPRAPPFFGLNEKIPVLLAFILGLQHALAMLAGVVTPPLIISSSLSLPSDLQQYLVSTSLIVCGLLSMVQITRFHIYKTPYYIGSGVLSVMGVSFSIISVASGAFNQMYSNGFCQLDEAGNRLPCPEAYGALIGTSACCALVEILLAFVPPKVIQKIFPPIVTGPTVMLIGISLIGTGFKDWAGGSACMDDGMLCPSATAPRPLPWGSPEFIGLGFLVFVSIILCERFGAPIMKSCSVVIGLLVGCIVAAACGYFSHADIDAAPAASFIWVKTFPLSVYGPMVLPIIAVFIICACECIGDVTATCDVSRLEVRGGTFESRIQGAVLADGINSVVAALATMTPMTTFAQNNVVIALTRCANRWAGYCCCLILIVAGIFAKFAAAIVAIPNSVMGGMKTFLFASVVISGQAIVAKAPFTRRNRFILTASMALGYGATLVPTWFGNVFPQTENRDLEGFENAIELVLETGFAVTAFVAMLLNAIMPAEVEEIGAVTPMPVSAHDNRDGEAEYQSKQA
Method: An experiment for measuring the structural stability of uric acid-xanthine/H^+ symporter (UapA) solubilized in MGAs in an aqueous solution was performed. The structural stability of UapA was measured using a CPM assay, and was measured at MGAs and DDM concentrations of (a) CMC+0.04 wt %, or (b) CMC+0.2 wt %.
Specifically, a UapA protein is a uric acid-xanthine/H^+ symporter in Aspergillus nidulans. Protein stability was measured by fluorescence spectroscopy using N-[4-(7-diethylamino-4-methyl-3-coumarinyl)phenyl]maleimide (CPM) which is a sulfhydryl-specific fluorophore. A free sulfhydryl group of a cysteine residue is in the interior of a protein, but becomes accessible to a solvent upon protein unfolding. CPM becomes fluorescent by a reaction with the free thiol, and thus provides as a protein unfolding sensor. In order to measure thermal stability, first, UapAG411V1-11 was expressed in the Saccharomyces cerevisiae FGY217 strain by fusion with GFP, and separated in a sample buffer (20 mM Tris (pH 7.5), 150 mM NaCl, 0.03% DDM and 1 mM xanthine) according to a method described in a research article (Mol. Membr. Biol. 2013, 30, 32-42) by J. Leung et al. A UapA protein was concentrated to about 10 mg/ml using a 100 kDa molecular weight cut-off filter (Millipore). The concentrated protein was diluted to a ratio of 1:150 with each buffer including DDM or MGA (MGA-C10, MGA-C11, MGA-C12, MGA-C13, MGA-C14 or MGA-C15) at a concentration of CMC+0.04 wt % or CMC+0.2 wt % in a Greiner 96-well plate. A CPM dye (Invitrogen) stored in DMSO (Sigma) was diluted with a dye buffer (20 mM Tris (pH 7.5), 150 mM NaCl, 0.03% DDM and 5 mM EDTA), and 3 μl of the diluted dye was added to each protein sample. The reaction mixture was incubated at 40° C. for 120 minutes. Fluorescence emission was monitored using a microplate spectrofluorometer, with an excitation wavelength at 387 nm and an emission wavelength at 463 nm. Relative maximum fluorescence was used to calculate a percentage of relative folded protein remaining after 120 minutes at 40° C. Relative unfolded proteins were plotted against time using GraphPad Prism.
Specifically, a UapA stabilization effect was evaluated by the same method as in Experimental Example 2 using MGA-C13, MGA-C14, MNG-3 or DDM at a concentration of (a) CMC+0.04 wt % or (b) CMC+0.2 wt %.

Water-solubility = type: physicochemical; conditions: in water

SMILES	SEC profile of solubilized β2AR [1]	β2AR receptor (ligand binding) activity retained [2] [%]	Rh (nm), hydrodynamic radius of micelle [3]	CMC [4] [µM]	CMC (wt %) [4] [wt %]	LeuT ligand-binding activity retained, % of initial activity [5] [%]	MelBSt protein extraction efficiency ([6]; 0° C. and 45° C.)	MelBSt protein extracted ([6]; 55° C. or more)	size of protein-detergent complexes (PDCs) with β2AR ([1]; SEC, amphiphile-containing buffer, 0.2% amphiphile)	UapA stabilization effect compared with MNG-3 ([7]; CMC+0.04 wt % or CMC+0.2 wt %, FIG. 25)	effect in maintaining folded UapA, ranking among MGAs ([7]; CMC+0.2 wt %, 40° C., 120 minutes)	MelBSt protein extraction efficiency compared with DDM [6]	MelBSt extraction ability compared with DDM [6]	water-solubility (Water-solubility) [%]
CCCCCCCCCCCCO[C@@H]1O[C@H](CO)[C@@H](O[C@H]2O[C@H](CO)[C@@H](O)[C@H](O)[C@H]2O)[C@H](O)[C@H]1O [DDM, n-dodecyl-β-D-maltopyranoside, reference compound]	largely decreased monodispersed peak intensity (˜13 mL) and a new broad aggregate peak (˜10 mL)	~15	3.4 nm and 3.4 ± 0.02 nm	~170	~0.0087	~40	high protein extraction efficiency	almost no protein was observed						
CCCCCCCCCCCCCC(CO[C@@H]1OC(CO)[C@@H](O)C(O)C1O)(CO[C@@H]1OC(CO)[C@@H](O)C(O)C1O)Cc1cc(CC(CCCCCCCCCCCCC)(CO[C@@H]2OC(CO)[C@@H](O)C(O)C2O)CO[C@@H]2OC(CO)[C@@H](O)C(O)C2O)cc(CC(CCCCCCCCCCCCC)(CO[C@@H]2OC(CO)[C@@H](O)C(O)C2O)CO[C@@H]2OC(CO)[C@@H](O)C(O)C2O)c1 (some centres unmarked) [MGA-C13]	almost no change		3.2 ± 0.03 nm	~3	~0.0006				smaller protein-detergent complexes (PDCs) than DDM	far greater UapA stabilization effect than MNG-3	had the highest effect	same level of protein extraction efficiency as DDM	higher MelBSt extraction ability than DDM	
CCCCCCCCCCCCCCCC(CO[C@@H]1OC(CO)[C@@H](O)C(O)C1O)(CO[C@@H]1OC(CO)[C@@H](O)C(O)C1O)Cc1cc(CC(CCCCCCCCCCCCCCC)(CO[C@@H]2OC(CO)[C@@H](O)C(O)C2O)CO[C@@H]2OC(CO)[C@@H](O)C(O)C2O)cc(CC(CCCCCCCCCCCCCCC)(CO[C@@H]2OC(CO)[C@@H](O)C(O)C2O)CO[C@@H]2OC(CO)[C@@H](O)C(O)C2O)c1 (some centres unmarked) [MGA-C15]			3.6 ± 0.02 nm	~1.5	~0.0003							same level of protein extraction efficiency as DDM	higher MelBSt extraction ability than DDM	≥ 20
